Source: patent publication US9770460B2, “Non-digestible oligosaccharides for oral induction of tolerance against dietary proteins” (N.V. NUTRICIA, priority 2010, dated 2017)
Where no end group is shown, it is not given here.

Test system: whey sensitized animals
Test: Mouse model of whey protein allergy: ear swelling after oral pretreatment with peptide mixtures (Example 4)
Format: in vivo, mice
Settings: Example 4, pretreatment prior to whey sensitization
Source text: Three- to four-week-old pathogen free female C3H/HeOuJ mice (Charles River Laboratories, Maastricht, The Netherlands) were used for this experiment. The mice were maintained on cow's milk protein free standard mouse chow (AIN-93G soy, Special Diets Services, Wijk bij Duurstede, the Netherlands).
The AIN-93G control diet was mixed with non-digestible oligosaccharides (2% w/w). The same non-digestible oligosaccharides were used as in example 1.
18-amino-acid-long synthetic peptides of beta-lactoglobulin were obtained from JPT Peptide Technologies (Berlin, Germany) (Table 4). Whey protein was purchased from DMV International (Veghel, The Netherlands). […]. Phosphate-buffered saline (PBS) was obtained from Cambrex Bio Science (Verviers, Belgium).
Shortly prior to the experiment, the peptides were suspended in PBS. The peptides were combined in three mixtures, namely peptides 1-4 in mixture 1, peptides 5-7 in mixture 2 and peptides 8 and 9 in mixture 3. The final concentration of each peptide in the mixture was 8 mg/ml. […] Before and 1 h after the challenge, the ear thickness was measured using a digital micrometer (Mitutoyo, Veenendaal, the Netherlands). The difference in the ear thickness (ear swelling) is an indication for the acute allergic response and is expressed as delta μm.

## AASDISLLDAQSAPLRVY [Peptide 3, beta-lactoglobulin AA 25-42]
  allergic response / synergy with NDO, in words: did not show these synergistic effects with NDO
